Laboratory results taken from US20150105252A1, “SUBSTITUTED PYRAZOLES AS HERBICIDES” (E I DU PONT DE NEMOURS AND COMPANY, priority 2013, published 2015).

Tests used:
ryegrass, Italian = assay: Test C preemergence; format: in vivo, Lolium multiflorum
In short: (§1)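 Herbicidal effect is expressed as percent visual control (0–100) judged against untreated plants 13 to 15 days after treatment in the greenhouse. Preemergence pots contained seeds in a soil–sand blend; postemergence plants, 2–18 cm tall, grew in peat-based planting medium.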

barnyardgrass = assay: Test B flood; format: in vivo, Echinochloa crus-galli; conditions: 250 g ai/ha, visual rating on 0 to 100 scale (0 no effect, 100 complete control), 13 to 15 days
In short: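 Response scored visually, 0–100 relative to controls, 13–15 days after the compound was applied into paddy water; plants were at the 2-leaf stage in pots kept flooded to 3 cm.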

pigweed [1] = assay: Test A postemergence; format: in vivo, Amaranthus retroflexus
In short: (§2)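 Visual injury rating, 0–100 (0 no effect, 100 complete control), vs untreated controls ~10 days after treatment in greenhouse. Pre: directed soil spray on seeded loam/sand. Post: 2–10 cm plants, 1–2 leaf stage. Formulation: non-phytotoxic solvent mix + surfactant.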

crabgrass, large = assay: Test C preemergence; format: in vivo, Digitaria sanguinalis
In short: as §1

foxtail, giant = assay: Test C preemergence; format: in vivo, Setaria faberii
In short: as §1

corn = assay: Test C postemergence; format: in vivo, Zea mays; conditions: for Plant response rating (scale of 0 to 100 where 0 is no effect and 100 is complete control), Corn: Postemergence, 31 g ai/ha, visually evaluated after 13 to 15 days; for Corn plant response rating / Plant response rating, Corn: postemergence; for Corn plant response rating: 62 g ai/ha, scale 0 to 100
In short: as §1

oilseed rape = assay: Test C preemergence; format: in vivo, Brassica napus
In short: as §1

blackgrass = assay: Test C preemergence; format: in vivo, Alopecurus myosuroides
In short: as §1

wheat [2] = assay: Test C postemergence; format: in vivo, Triticum aestivum; conditions: for Wheat plant response rating / Plant response rating, Wheat: postemergence; for Wheat plant response rating: scale 0 to 100
In short: as §1

pigweed [3] = assay: Test A preemergence; format: in vivo, Amaranthus retroflexus; conditions: preemergence
In short: as §2

wheat [4] = assay: Test A postemergence; format: in vivo, Triticum aestivum
In short: as §2

galium = assay: Test C postemergence; format: in vivo, Galium aparine; conditions: for Plant response rating (scale of 0 to 100 where 0 is no effect and 100 is complete control), Galium: Postemergence, 31 g ai/ha, visually evaluated after 13 to 15 days; for Galium plant response rating / Plant response rating, Galium: postemergence; for Galium plant response rating: 62 g ai/ha, scale 0 to 100
In short: as §1

morningglory = assay: Test A postemergence; format: in vivo, Ipomoea spp.
In short: as §2

[5] = preemergence, 31 g ai/ha, visual rating, scale 0 to 100 (0 no effect, 100 complete control), 13 to 15 days
[6] = preemergence, 62 g ai/ha, scale 0 to 100 (0 no effect, 100 complete control), 13 to 15 days
[7] = preemergence, 125 g ai/ha, scale 0 to 100, 0 is no effect, 100 is complete control
[8] = Postemergence, 500 g ai/ha, visual rating after approx. 10 days, 0 to 100 scale (0 no effect, 100 complete control)
[9] = postemergence, 125 g ai/ha, about 10 days, visual rating on 0 to 100 scale (0 no effect, 100 complete control)
[10] = 250 g ai/ha, scale 0 to 100 (0 no effect, 100 complete control)
[11] = 125 g ai/ha, scale 0 to 100, 0 no effect, 100 complete control
[12] = preemergence, 125 g ai/ha, 13 to 15 days, scale 0 to 100, 0 = no effect, 100 = complete control
[13] = preemergence, 250 g ai/ha, scale 0 to 100, 0 is no effect, 100 is complete control
[14] = Postemergence, 125 g ai/ha, 0 to 100 scale, 0 no effect, 100 complete control
[15] = Postemergence, 500 g ai/ha, 0 to 100 scale (0 no effect, 100 complete control)

Structure (SMILES): CCCNC(=O)c1cc(CC)n(Cc2nc(C(F)(F)F)nn2C)n1 [Compound 109]
- Plant response rating (scale of 0 to 100), Ryegrass, Italian (ryegrass, Italian; Preemergence, 250 g ai/ha): 100
- Ryegrass, Italian plant response rating (ryegrass, Italian; [5]): 10
- Ryegrass, Italian plant response rating (ryegrass, Italian; [6]): 50
- Ryegrass, Italian plant response rating (ryegrass, Italian; [7]): 100
- Plant response rating, Barnyardgrass (barnyardgrass): 0
- Pigweed plant response rating (pigweed [1]; [8]): 90
- Pigweed plant response rating (pigweed [1]; [9]): 90
- Plant response rating (scale of 0 to 100), Crabgrass, Large (crabgrass, large; Preemergence, 250 g ai/ha): 100
- Crabgrass, Large plant response rating (crabgrass, large; [5]): 90
- Crabgrass, Large plant response rating (crabgrass, large; [6]): 100
- Crabgrass, Large plant response rating (crabgrass, large; [7]): 100
- Plant response rating (scale of 0 to 100), Foxtail, Giant (foxtail, giant; Preemergence, 250 g ai/ha): 100
- Foxtail, Giant plant response rating (foxtail, giant; [5]): 100
- Foxtail, Giant plant response rating (foxtail, giant; [6]): 100
- Foxtail, Giant plant response rating (foxtail, giant; [7]): 100
- Plant response rating (scale of 0 to 100 where 0 is no effect and 100 is complete control), Corn (corn): 5
- Corn plant response rating (corn): 10
- Plant response rating, Corn (corn; [10]): 15
- Plant response rating, Corn (corn; [11]): 15
- Plant response rating (scale of 0 to 100), Oilseed Rape (oilseed rape; Preemergence, 250 g ai/ha): 100
- Oilseed Rape plant response rating (oilseed rape; [5]): 40
- Oilseed Rape plant response rating (oilseed rape; [6]): 100
- Oilseed Rape plant response rating (oilseed rape; [7]): 100
- Plant response rating (scale of 0 to 100), Blackgrass (blackgrass; Preemergence, 250 g ai/ha): 100
- Blackgrass plant response rating (blackgrass; [5]): 100
- Blackgrass plant response rating (blackgrass; [6]): 100
- Blackgrass plant response rating (blackgrass; [7]): 100
- Plant response rating (scale of 0 to 100 where 0 is no effect and 100 is complete control), Wheat (wheat [2]; Postemergence, 31 g ai/ha, visually evaluated after 13 to 15 days): 0
- Wheat plant response rating (wheat [2]; 62 g ai/ha): 0
- Plant response rating, Wheat (wheat [2]; [10]): 0
- Plant response rating, Wheat (wheat [2]; [11]): 0
- Pigweed plant response rating (pigweed [3]; 125 g ai/ha, visual injury, 0 to 100 scale, approx. 10 days): 100
- Pigweed plant response rating (pigweed [3]; 500 g ai/ha, visual injury after approx. 10 days, 0 to 100 scale (0 no effect, 100 complete control)): 100
- Wheat plant response rating (wheat [4]; [8]): 80
- Wheat plant response rating (wheat [4]; [9]): 50
- Plant response rating (scale of 0 to 100 where 0 is no effect and 100 is complete control), Galium (galium): 50
- Galium plant response rating (galium): 50
- Plant response rating, Galium (galium; [10]): 80
- Plant response rating, Galium (galium; [11]): 65
- Morningglory plant response rating (morningglory; [8]): 100
- Morningglory plant response rating (morningglory; [9]): 90

Structure (SMILES): CCCc1cc(C(=O)NC2CC2)nn1Cc1ccnc(OC(F)F)c1 [Compound 205]
- Ryegrass, Italian plant response rating (ryegrass, Italian; [5]): 60
- Ryegrass, Italian plant response rating (ryegrass, Italian; [6]): 70
- Plant response rating, Ryegrass, Italian (ryegrass, Italian; [12]): 90
- Ryegrass, Italian plant response rating (ryegrass, Italian; [13]): 95
- Plant response rating, Barnyardgrass (barnyardgrass): 50
- Pigweed plant response rating (pigweed [1]; [14]): 100
- Pigweed plant response rating (pigweed [1]; [15]): 100
- Crabgrass, Large plant response rating (crabgrass, large; [5]): 100
- Crabgrass, Large plant response rating (crabgrass, large; [6]): 100
- Plant response rating, Crabgrass, Large (crabgrass, large; [12]): 100
- Crabgrass, Large plant response rating (crabgrass, large; [13]): 100
- Foxtail, Giant plant response rating (foxtail, giant; [5]): 100
- Foxtail, Giant plant response rating (foxtail, giant; [6]): 100
- Plant response rating, Foxtail, Giant (foxtail, giant; [12]): 100
- Foxtail, Giant plant response rating (foxtail, giant; [13]): 100
- Plant response rating (scale of 0 to 100 where 0 is no effect and 100 is complete control), Corn (corn): 10
- Corn plant response rating (corn): 10
- Plant response rating, Corn (corn; [10]): 40
- Plant response rating, Corn (corn; [11]): 20
- Oilseed Rape plant response rating (oilseed rape; [5]): 100
- Oilseed Rape plant response rating (oilseed rape; [6]): 100
- Plant response rating, Oilseed Rape (oilseed rape; [12]): 100
- Oilseed Rape plant response rating (oilseed rape; [13]): 100
- Blackgrass plant response rating (blackgrass; [5]): 80
- Blackgrass plant response rating (blackgrass; [6]): 95
- Plant response rating, Blackgrass (blackgrass; [12]): 95
- Blackgrass plant response rating (blackgrass; [13]): 100
- Plant response rating, Wheat (wheat [2]; [10]): 5
- Wheat plant response rating (wheat [2]): 5
- Pigweed plant response rating (0 to 100 scale) (pigweed [3]; 125 g ai/ha, visual injury approx. 10 days after treatment): 100
- Wheat plant response rating (wheat [4]; [14]): 70
- Wheat plant response rating (wheat [4]; [15]): 90
- Plant response rating (scale of 0 to 100 where 0 is no effect and 100 is complete control), Galium (galium): 65
- Galium plant response rating (galium): 80
- Plant response rating, Galium (galium; [10]): 80
- Plant response rating, Galium (galium; [11]): 80
